In patent US10039761B2, “Co-crystals and pharmaceutical compositions comprising the same” (Vertex Pharmaceuticals Incorporated, priority 2013, dated 2018):

Columns and labels:
HFL1 [1] = test: Combination with genotoxic agents, cell viability (Mixtures Blend); format: cell-based, human
Procedure: The cell-based experiments and assays were performed with either molecule but not always with both. Compounds (1) and (2) were generally very similar in those assays and experiments. Analysis of the combination experiments was performed using two methods: the Bliss Additivity model and the Mixtures Blend method to determine the degree of synergy, additivity, or antagonism. In the Bliss method, a matrix of Bliss scores was generated for each cell line and treatment, and a sum of the Bliss values over the range of combination concentrations tested was calculated. […] Larger average Bliss values indicate greater confidence in reporting synergy, and smaller scores indicate greater confidence in reporting antagonism. In the Mixtures Blend method combinants were added in a range of optimal ratios using design of experiment (DOE) software (DX-8 from STAT-EASE); the cells were irradiated with 2 Gy as required. Synergy was determined using statistical analysis of the data (ANOVA) to indicate linear (additivity) or statistically significant (p<0.1) non-linear (antagonism or synergy) mixes of the combinants. The following SOC agents were tested in double combinations with Compound (1): etoposide (a topoisomerase inhibitor that induces DSBs), cisplatin (DNA cross-linker), carboplatin (DNA cross-linker), fluorouracil (5-FU, antimetabolite that inhibits thymidylate synthase), paclitaxel (mitotic inhibitor that binds to tubulin), cetuximab (EGFR monoclonal antibody), and radiation. […] These findings were confirmed using the Bliss Additivity model (Table 21). […] While there is not total agreement in the various lines tested, (as detailed in the other sections) the majority agree and the conclusions arrived at are common to each. […] The cancer cell lines in Table 19 indicate: ESO26-gastroesophageal junction cancer, OE19-gastroesophageal junction cancer, […]549-lung cancer, colo205-colon cancer, H460-lung cancer, H2009-lung cancer, FaDu-pharynx cancer, Miapaca2-pancreatic cancer, HFL1-human fetal lung fibroblast.

[2] = Body weight in OD26749 xenograft studies; format: in vivo, nude mice
Procedure: The in vivo efficacies of Compounds (1) and (2) in combination with whole body IR were examined in the OD26749 primary NSCLC (non-small cell lung cancer) and the OE-19 GEJ cell line xenograft models. In these studies, Compounds (1) and (2) were formulated with 16% captisol/1% PVP/1% HPMC E5 pH2.
The in vivo efficacy of Compound (1) was evaluated in the primary OD26749 NSCLC subcutaneous xenograft model. […] Efficacy was evaluated using a regimen in which 2-Gy whole body IR was administered twice, one week apart. Compound (1) was administered PO (tid at 0, 3, and 7 h) at 100 mg/kg alone or with a single 2 Gy dose of whole body IR at 3.25 h. Seven days later, the same regimens were repeated. Compound (1) in combination with 2 Gy whole body IR induced significant tumor regression (% T/Ti of −75; P<0.01) compared to IR alone.
The efficacies of Compounds (1) and (2) in combination with whole body IR (2 Gy) were evaluated in the OD26749 primary NSCLC xenograft model at a Compound (1) dose level of 100 mg/kg PO bid (0 and 4 h) and Compound (2) dose levels of 50 mg/kg and 100 mg/kg PO bid (0 and 4 h). Two cycles of whole body IR (2 Gy) were given 15 min after the first compound administration (0.25 hour). Control animals were administered vehicle PO bid (0 and 4 h). Two cycles of treatment were performed on Day 0 and Day 7.

HFL1 [3] = test: Combination with etoposide, viability (Bliss analysis); format: cell-based, human; settings: Compound (2) with etoposide; n = 3
Procedure: (§1) The cell-based experiments and assays were performed with either molecule but not always with both. Compounds (1) and (2) were generally very similar in those assays and experiments. Analysis of the combination experiments was performed using two methods: the Bliss Additivity model and the Mixtures Blend method to determine the degree of synergy, additivity, or antagonism. In the Bliss method, a matrix of Bliss scores was generated for each cell line and treatment, and a sum of the Bliss values over the range of combination concentrations tested was calculated. […] Larger average Bliss values indicate greater confidence in reporting synergy, and smaller scores indicate greater confidence in reporting antagonism. In the Mixtures Blend method combinants were added in a range of optimal ratios using design of experiment (DOE) software (DX-8 from STAT-EASE); the cells were irradiated with 2 Gy as required. Synergy was determined using statistical analysis of the data (ANOVA) to indicate linear (additivity) or statistically significant (p<0.1) non-linear (antagonism or synergy) mixes of the combinants.

[4] = tested on: triple-negative breast cancer cell lines; test: Doxorubicin/epirubicin combination, all breast cancer lines tested; format: cell-based; settings: doxorubicin and Compound (2)
Procedure: as §1

[5] = Body weight in ST-02-0004 xenograft studies; settings: in vivo, po, 25 mg/kg
Procedure: The in vivo activities of Compounds (1) and (2) were compared in combination with focused beam IR in a primary gastric cancer subcutaneous xenograft model. In the ST 02 0004 model, focused IR was administered on three consecutive days alone and in combination with Compound (1) or Compound (2). […] For all experimental groups, treatment was generally well tolerated as evidenced by maximum body weight losses ranging from −8.06% to −10.0% 10 to 48 days after treatment initiation
The anti-tumor activity of Compound (2) in combination with focused-beam IR and the standard of care agents, paclitaxel and carboplatin, was also evaluated in the ST 02 0004 model. Treatment with paclitaxel, carboplatin, and IR was administered once per week for three weeks alone or in combination with Compound (2). […] Further, the 50 and 25 mg/kg Compound (2), paclitaxel/carboplatin, IR combination groups were statistically different (P<0.05) from the paclitaxel/carboplatin, paclitaxel/carboplatin/50 mg/kg Compound (2), and paclitaxel/carboplatin/IR groups. Compound (2) blood exposures were 9.3 and 27 μg*h/mL for the 25 and 50 mg/kg Compound (2) bid groups, respectively.

A549 = test: Combination with etoposide, viability (Bliss analysis); format: cell-based; settings: Compound (2) with etoposide; n = 1
Procedure: as §1

ESO26 = test: as above; format: cell-based; settings: Compound (2) with etoposide; n = 3
Procedure: as §1

| shift in IC50 of the combination compared to doxorubicin alone [4] [fold] | Structure (SMILES) | Synergy or Antagonism, No Radiation (HFL1 [1]; no agent ticked) | Synergy or Antagonism, Plus Radiation (2 Gy) (HFL1 [1]; no agent ticked) | Synergy or Antagonism, No Radiation (HFL1 [1]; with Cisplatin) | Synergy or Antagonism, No Radiation (HFL1 [1]; with Cisplatin and 5-FU) | Synergy or Antagonism, Plus Radiation (2 Gy) (HFL1 [1]; with Cisplatin and 5-FU) | Synergy or Antagonism, No Radiation (HFL1 [1]; with Etoposide) | Synergy or Antagonism, No Radiation (HFL1 [1]; with Paclitaxel) | Max. body wt loss (%) ([2]; PO 25 mg/kg bid (0, 4 h), 2 Gy IR ([…]) q7dx2, Day 8) | Max. body wt loss (%) ([2]; PO 50 mg/kg bid (0, 4 h), 2 Gy IR ([…]) q7dx2, Day 8) | Max. body wt loss (%) ([2]; PO 100 mg/kg bid (0, 4 h), 2 Gy IR ([…]) q7dx2, Day 8) | Max. body wt loss (%) ([2]; PO 100 mg/kg tid (0, 3, 7 h) q7dx2, no IR) | Max. body wt loss (%) ([2]; PO 100 mg/kg tid (0, 3, 7 h) qdx1, 2 Gy qdx1 (3.25 h), Day 2) | Max. body wt loss (%) ([2]; PO 100 mg/kg tid (0, 3, 7 h) qdx1, no IR, Day 2) | Max. body wt loss (%) ([2]; PO 200 mg/kg qd, 2 Gy IR ([…]) q7dx2, Day 1) | Average Bliss score (HFL1 [3]) | Max. body wt loss (%) [5] [%] | Average Bliss score (A549) | Average Bliss score (ESO26) |
| --- | --- | --- | --- | --- | --- | --- | --- | --- | --- | --- | --- | --- | --- | --- | --- | --- | --- | --- | --- |
|  | CNC(=O)c1ccnc2c([C@H](C)CNc3cc(-c4cnc(C)nc4)ncn3)cccc12 [Compound (1), (S)-N-methyl-8-(1-((2′-methyl-[4,5′-bipyrimidin]-6-yl)amino)propan-2-yl)quinoline-4-carboxamide] | Additivity | No effect | Additive | Additivity | Additivity, Plus | Synergy | Additivity | −7.70 | −5.50 | −3.70 | weight gain | −9.70 | −2.40 | −6.10 |  |  |  |  |
| > 3 | [2H]c1nc(C)nc([2H])c1-c1cc(NC[C@@H](C)c2cccc3c(C(=O)NC)ccnc23)ncn1 [Compound (2), (S)-N-methyl-8-(1-((2′-methyl-4′,6′-dideutero-[4,5′-bipyrimidin]-6-yl)amino)propan-2-yl)quinoline-4-carboxamide] |  |  |  |  |  |  |  |  |  |  |  |  |  |  | 8.7 ± 5.6 (n = 3) | −6.73 | 27.3 (n = 1) | 43.2 ± 6.5 (n = 3) |
